According to patent publication US12071424B2, “IRE1 small molecule inhibitors” (Cornell University, priority 2017, dated 2024):

Molecular target: T1, IRE1a (Homo sapiens, UniProt O75460)
T1 construct: purchased SignalChem
Assay: In vitro FRET assay (IRE1a cleavage of XBP1 RNA probe)
Format: biochemical
Settings: 2 nM SignalChem IRE1a, tested as Formic Acid Salt (37: HCl Salt)
Method: In vitro FRET assay was performed to evaluate the ability of select compounds to inhibit IRE1, the results of which are summarized in Table 3. To perform the in vitro FRET assay, 1× complete assay buffer (CAB: […], 50 mM sodium citrate pH 7.15, 1 mM magnesium acetate, 0.02% tween 20) was used to SignalChem IRE1a protein to a final concentration of 2 nM. Selected compounds were serially diluted with DMSO in a non-binding black 384-well plate for a total of 15 ul in each well. 2 ul of the serially diluted compound or DMSO control were then added to new wells containing 98 ul of 1× CAB, for a total volume of 100 ul, 10 ul of which were then transferred to wells of a new plate. 5 ul of the diluted IRE1a was then added to each well. 5 ul of a […] XBP1 RNA probe was then added to each well. Fluorescence was then read over 30 minutes in kinetic mode (485/515 nm).
Two RNA probes were used, XBP1 wildtype (SEQ ID NO: 2) which is able to be spliced by active IRE1a or XBP1 mutant (SEQ ID NO: 3) which is unable to be spliced. Each probe contained a 5′ 6-FAM modification and a 3′ IOWA black FQ modification. […]

T1 sequence (O75460 19-977): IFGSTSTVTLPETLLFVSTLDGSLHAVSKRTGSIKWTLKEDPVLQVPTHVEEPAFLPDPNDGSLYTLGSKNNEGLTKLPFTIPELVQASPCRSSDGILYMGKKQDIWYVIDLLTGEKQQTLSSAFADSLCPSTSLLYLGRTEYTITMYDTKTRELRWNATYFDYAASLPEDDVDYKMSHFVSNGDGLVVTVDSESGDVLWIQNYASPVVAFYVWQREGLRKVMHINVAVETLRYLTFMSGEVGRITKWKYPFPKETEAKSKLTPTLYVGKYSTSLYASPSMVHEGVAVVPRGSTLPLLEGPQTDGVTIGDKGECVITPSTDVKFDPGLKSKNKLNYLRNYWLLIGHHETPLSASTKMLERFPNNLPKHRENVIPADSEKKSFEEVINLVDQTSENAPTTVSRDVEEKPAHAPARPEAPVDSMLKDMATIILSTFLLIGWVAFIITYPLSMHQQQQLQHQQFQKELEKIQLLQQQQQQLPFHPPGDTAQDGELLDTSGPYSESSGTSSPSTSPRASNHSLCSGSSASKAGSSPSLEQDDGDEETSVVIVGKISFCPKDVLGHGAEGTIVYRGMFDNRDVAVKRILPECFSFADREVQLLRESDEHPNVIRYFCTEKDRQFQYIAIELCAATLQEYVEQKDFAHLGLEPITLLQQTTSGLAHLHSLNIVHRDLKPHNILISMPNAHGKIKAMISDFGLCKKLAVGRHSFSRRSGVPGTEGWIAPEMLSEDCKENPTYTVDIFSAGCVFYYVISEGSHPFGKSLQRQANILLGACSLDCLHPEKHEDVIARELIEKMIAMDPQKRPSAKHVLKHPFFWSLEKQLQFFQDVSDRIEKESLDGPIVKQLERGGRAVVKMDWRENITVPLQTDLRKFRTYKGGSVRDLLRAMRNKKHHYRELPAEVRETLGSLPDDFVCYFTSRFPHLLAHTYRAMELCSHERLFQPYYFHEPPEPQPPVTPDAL

Row | SMILES | IC50
1 | COc1nc(NS(=O)(=O)c2ccccc2Cl)c(F)cc1-c1cc(C)c2nc(N[C@H]3CC[C@@H](N(C)C)CC3)ncc2c1 [Compound 147, 2-chloro-N-(5-(2-(((1s,4s)-4-(dimethylamino)cyclohexyl)amino)-8-methylquinazolin-6-yl)-3-fluoro-6-methoxypyridin-2-yl)benzenesulfonamide] | 5 to 50 nM
2 | COc1cc(-c2cc(NS(=O)(=O)c3ccccc3Cl)nn2C)cc2cnc(N[C@H]3CC[C@H](N)CC3)nc12 [Compound 45, N-(5-(2-(((1r,4r)-4-aminocyclohexyl)amino)-8-methoxyquinazolin-6-yl)-1-methyl-1H-pyrazol-3-yl)-2-chlorobenzene-sulfonamide] | 50 to 100 nM
3 | CCc1cc(-c2ccc(N(C)S(=O)(=O)c3ccccc3Cl)cc2C)cc2cnc(N[C@H]3CC[C@H](N)CC3)nc12 [Compound 31, N-(4-(2-(((1r,4r)-4-aminocyclohexyl)amino)-8-ethylquinazolin-6-yl)-3-methylphenyl)-2-chloro-N-methylbenzene-sulfonamide] | 100 to 10000 nM
4 | COc1nc(NS(=O)(=O)c2ccccc2Cl)ccc1-c1cc(C)c2nc(N[C@H]3CC[C@@H](N(C)C)CC3)ncc2c1 [Compound 139, 2-chloro-N-(5-(2-(((1s,4s)-4-(dimethylamino)cyclohexyl)amino)-8-methylquinazolin-6-yl)-6-methoxypyridin-2-yl)benzenesulfonamide] | 5 to 50 nM
5 | Cc1nc(NS(=O)(=O)c2ccccc2Cl)c(F)cc1-c1cc(F)c2nc(N[C@H]3CC[C@H](N(C)C)CC3)ncc2c1 [Compound 156, 2-chloro-N-(5-(2-(((1r,4r)-4-(dimethylamino)cyclohexyl)amino)-8-fluoroquinazolin-6-yl)-3-fluoro-6-methylpyridin-2-yl)benzenesulfonamide] | 100 to 10000 nM
6 | Cc1cc(N(C)S(=O)(=O)c2ccccc2Cl)ccc1-c1cc(O)c2nc(N[C@H]3CC[C@H](N)CC3)ncc2c1 [Compound 30, N-(4-(2-(((1r,4r)-4-aminocyclohexyl)amino)-8-hydroxyquinazolin-6-yl)-3-methylphenyl)-2-chloro-N-methylbenzene-sulfonamide] | 50 to 100 nM
7 | CCc1cc(-c2ccc(NS(=O)(=O)c3ccccc3Cl)nc2OC)cc2cnc(N[C@H]3CC[C@@](C)(N(C)C)CC3)nc12 [Compound 143, 2-chloro-N-(5-(2-(((1s,4s)-4-(dimethylamino)-4-methylcyclohexyl)amino)-8-ethylquinazolin-6-yl)-6-methoxypyridin-2-yl)benzenesulfonamide] | 5 to 50 nM
8 | CCc1cc(-c2cc(F)c(NS(=O)(=O)c3ccccc3Cl)nc2OC)cc2cnc(N[C@H]3CC[C@@](C)(N(C)C)CC3)nc12 [Compound 144, 2-chloro-N-(5-(2-(((1s,4s)-4-(dimethylamino)-4-methylcyclohexyl)amino)-8-ethylquinazolin-6-yl)-3-fluoro-6-methoxypyridin-2-yl)benzenesulfonamide] | 50 to 100 nM
9 | CCc1cc(-c2ccc(NS(=O)(=O)c3ccccc3Cl)nc2C)cc2cnc(N[C@H]3CC[C@H](N(C)CC(F)(F)F)CC3)nc12 [Compound 126, 2-chloro-N-(5-(8-ethyl-2-(((1r,4r)-4-(methyl(2,2,2-trifluoroethyl)amino)cyclohexyl)amino)quinazolin-6-yl)-6-methylpyridin-2-yl)benzenesulfonamide] | 50 to 100 nM
10 | CCc1cc(-c2cc(F)c(NS(=O)(=O)c3ccccc3Cl)nc2OC)cc2cnc(N[C@H]3CC[C@@H](N(C)C)CC3)nc12 [Compound 142, 2-chloro-N-(5-(2-(((1s,4s)-4-(dimethylamino)cyclohexyl)amino)-8-ethylquinazolin-6-yl)-3-fluoro-6-methoxypyridin-2-yl)benzenesulfonamide] | 5 to 50 nM

The next lines start with the values.

Row | IC50 | SMILES
11 | ≤ 5 nM | CCc1cc(-c2cnc(NS(=O)(=O)c3ccccc3Cl)nc2)cc2cnc(N[C@H]3CC[C@H](N)CC3)nc12 [Compound 39, N-(5-(2-(((1r,4r)-4-aminocyclohexyl)amino)-8-ethylquinazolin-6-yl)pyrimidin-2-yl)-2-chlorobenzene-sulfonamide]
12 | ≤ 5 nM | N[C@H]1CC[C@H](Nc2ncc3cc(-c4ccc(NS(=O)(=O)c5ccccc5Cl)c(F)c4)ccc3n2)CC1 [Compound 50, N-(4-(2-(((1r,4r)-4-aminocyclohexyl)amino)quinazolin-6-yl)-2-fluorophenyl)-2-chlorobenzene-sulfonamide]
13 | ≤ 5 nM | CCc1cc(-c2cc(F)c(NS(=O)(=O)c3ccccc3Cl)c(F)c2)cc2cnc(N[C@H]3CC[C@H](N)CC3)nc12 [Compound 63, N-(4-(2-(((1r,4r)-4-aminocyclohexyl)amino)-8-ethylquinazolin-6-yl)-2,6-difluorophenyl)-2-chlorobenzene-sulfonamide]
14 | ≤ 5 nM | COc1cc(-c2ccc(NS(=O)(=O)c3ccccc3Cl)cc2C)cc2cnc(N[C@H]3CC[C@H](N)CC3)nc12 [Compound 36, N-(4-(2-(((1r,4r)-4-aminocyclohexyl)amino)-8-methoxyquinazolin-6-yl)-3-methylphenyl)-2-chlorobenzene-sulfonamide]
15 | ≤ 5 nM | N[C@H]1CC[C@H](Nc2ncc3cc(-c4ccc(NS(=O)(=O)c5ccccc5Cl)nn4)ccc3n2)CC1 [Compound 49, N-(6-(2-(((1r,4r)-4-aminocyclohexyl)amino)quinazolin-6-yl)pyridazin-3-yl)-2-chlorobenzene-sulfonamide]
16 | ≤ 5 nM | CCc1cc(-c2cc(F)c(NS(=O)(=O)c3ccccc3Cl)cc2OC)cc2cnc(N[C@H]3CC[C@H](N)CC3)nc12 [Compound 42, N-(4-(2-(((1r,4r)-4-aminocyclohexyl)amino)-8-ethylquinazolin-6-yl)-2-fluoro-5-methoxyphenyl)-2-chlorobenzene-sulfonamide]
17 | ≤ 5 nM | CCc1cc(-n2cc(NS(=O)(=O)c3ccccc3Cl)cn2)cc2cnc(N[C@H]3CC[C@H](N)CC3)nc12 [Compound 43, N-(1-(2-(((1r,4r)-4-aminocyclohexyl)amino)-8-ethylquinazolin-6-yl)-1H-pyrazol-4-yl)-2-chlorobenzene-sulfonamide]
18 | ≤ 5 nM | CCc1cc(NS(=O)(=O)c2ccccc2Cl)nnc1-c1cc(CC)c2nc(N[C@H]3CC[C@H](N)CC3)ncc2c1 [Compound 96, N-(6-(2-(((1r,4r)-4-aminocyclohexyl)amino)-8-ethylquinazolin-6-yl)-5-ethylpyridazin-3-yl)-2-chlorobenzenesulfonamide]
19 | ≤ 5 nM | CCc1cc(-c2sc(NS(=O)(=O)c3ccccc3Cl)nc2C)cc2cnc(N[C@H]3CC[C@H](N)CC3)nc12 [Compound 38]
20 | ≤ 5 nM | CCc1cc(-c2cnc(NS(=O)(=O)c3ccccc3Cl)s2)cc2cnc(N[C@H]3CC[C@H](N)CC3)nc12 [Compound 41]
21 | ≤ 5 nM | CC(C)c1cc(-c2cc(NS(=O)(=O)c3ccccc3Cl)nn2C)cc2cnc(N[C@H]3CC[C@H](N)CC3)nc12 [Compound 40, N-(5-(2-(((1r,4r) 4-aminocyclohexyl)amino)-8-isopropylquiazolin-6-yl)-1-methyl-1H-pyrazol-3-yl)-2-chlorobenzene-sulfonamide]
